Assay results from patent publication US20260241046A1, “PROSTATE-SPECIFIC MEMBRANE ANTIGEN RECEPTOR-TARGETING RADIOPHARMACEUTICALS AND USES THEREOF” (Nuclidium AG, priority 2024, published 2026).

Legend:
[1] = Extended single-dose toxicity study (GLP); assay type: in vivo; conditions: both sexes, mouse, in vivo, iv, 5 mg/kg; single i.v. dose, CD-1 mice; read-out: no adverse effect level (NOAEL)
Experimental: (§1) The study was designed as an extended single-dose toxicity study in one rodent species and performed under GLP conditions. NODAGA-PSMA I&T toxicity was evaluated after intravenous administration on day 1 of the study, followed by an observation period of 2 weeks. 60 (30 males and 30 females) CD-1 mice were divided into one dose group and one control group. The test item was administered once by i.v. administration into the tail vein. In each of the two groups, (I) 10 male and 10 female animals were euthanized the day after dosing, (II) 5 male and 5 female recovery animals were kept for an observation period of 2 weeks after dosing to detect possible delayed occurrence or persistence of, or recovery from toxic effects.
(§2) The dose animals' group was injected with 5 mg/kg NODAGA-PSMA I&T in 5% dimethyl sulfoxide (application volume 5 mL/kg) as a vehicle. The control group underwent injection of the vehicle alone (5 mL/kg). The animals were observed daily for signs of toxicity and morbidity/mortality. All animals were sacrificed for necropsy. Blood was taken at the time of necropsies to analyze hematological and clinical biochemistry parameters and urine for urinalysis. The wet weight of a tissue subset was taken, and a set of organs/tissues was preserved. A complete histopathological evaluation of the tissues was performed on treated and control animals.

CD-1 mice = assay: Extended single-dose toxicity study (GLP); assay type: in vivo
Experimental: as §1, §2

[2] = Storage of lyophilized precursor; assay type: physicochemical; conditions: lyophilized powder, kept at 25° C. for up to 14 days
[3] = approved PET radiotracers, for comparison; cited from earlier work
[4] = Pharmacokinetics in healthy mice; assay type: in vivo
Experimental: The pharmacokinetics of the investigated radiopharmaceutical was evaluated in healthy female BALB/c mice from 1 to 24 hours. For the latest time points (12 and 24 hours), NODAGA-PSMA I&T was radiolabeled with ^64Cu obtained from the Tübingen University Hospital. The use of a different PET copper isotope is justified by the longer half-life of ^64Cu (t1/2=12.7 hours), which is more appropriate for tests that include delayed time points. Additionally, using an isotope from the same element ensures that the radiopharmaceutical retains its chemical and physical properties, guaranteeing consistency in the study. Mice were injected i.v. with 4 MBq (200 pmol) of [^61/64Cu]Cu-NODAGA-PSMA I&T diluted to 100 μL with saline solution. The data were combined with the results obtained from the groups of xenografts at 1 and 4 hours post-injection, as the biodistribution in nude mice was the same as in the healthy mice. The results are presented in Table 27 and are expressed as mean±standard deviation.

PSMA = molecular target: T1, PSMA (Homo sapiens, UniProt Q04609); assay: Binding affinity (IC50), competition with [^125I]I-BAKuE on LNCaP cells; conditions: 0.2 nM [^125I]I-BAKuE, 1 hour on ice
T1 construct: endogenous in cells; host or cells: LNCaP
Experimental: The binding affinity of NODAGA-PSMA I&T was determined by measuring IC50 by labelling the precursor with natural copper (^natCu). […] The radioiodinated ((S)-1-carboxy-5-(4-(-^125I-iodo-benzamido) pentyl) carbamoyl)-L-glutamic acid ([^125I]I-BAKuE) was used as reference radioligand. The assay was performed on LNCaP cells, human prostate cancer cells characterized by high expression levels of PSMA.
^natCu-NODAGA-PSMA I&T was produced by dissolving NODAGA-PSMA I&T (0.7 μmol) in 0.30 mL of ammonium acetate (0.5 M, pH 8), followed by the addition of 0.15 mL CuCl2 in 0.05 M hydrochloric acid. The reaction mixture was incubated for 15 min at 95° C. The product was purified from unlabeled ^natCu using a SepPak Classic C18 cartridge (Waters, Eschborn, Germany), washed with water, and eluted with 2 mL methanol. After evaporation of methanol, the product was reconstituted in 0.3 mg/mL 30% (v/v) acetonitrile in water.
The assay was performed on LNCaP cells seeded in 24-well plates. The cells were incubated with increasing concentrations of ^natCu-NODAGA-PSMA I&T (ranging from 0.1 up to 100 nM) in the presence of 0.2 nM [^125]I-BAKuE. After 1 hour of incubation on ice, the unbound (free) [^125I]I-BAKuE was collected by removing the medium (EMEM EBS) and the cells were detached with 1 M sodium hydroxide for counting (bound radioligand). […]

[5] = 5 mg/kg i.v., CD-1 mice, transitory, non-adverse
[6] = 12 hours post-injection (^64Cu)
[7] = 24 hours post-injection (^64Cu)

T1 sequence (Q04609 whole entry): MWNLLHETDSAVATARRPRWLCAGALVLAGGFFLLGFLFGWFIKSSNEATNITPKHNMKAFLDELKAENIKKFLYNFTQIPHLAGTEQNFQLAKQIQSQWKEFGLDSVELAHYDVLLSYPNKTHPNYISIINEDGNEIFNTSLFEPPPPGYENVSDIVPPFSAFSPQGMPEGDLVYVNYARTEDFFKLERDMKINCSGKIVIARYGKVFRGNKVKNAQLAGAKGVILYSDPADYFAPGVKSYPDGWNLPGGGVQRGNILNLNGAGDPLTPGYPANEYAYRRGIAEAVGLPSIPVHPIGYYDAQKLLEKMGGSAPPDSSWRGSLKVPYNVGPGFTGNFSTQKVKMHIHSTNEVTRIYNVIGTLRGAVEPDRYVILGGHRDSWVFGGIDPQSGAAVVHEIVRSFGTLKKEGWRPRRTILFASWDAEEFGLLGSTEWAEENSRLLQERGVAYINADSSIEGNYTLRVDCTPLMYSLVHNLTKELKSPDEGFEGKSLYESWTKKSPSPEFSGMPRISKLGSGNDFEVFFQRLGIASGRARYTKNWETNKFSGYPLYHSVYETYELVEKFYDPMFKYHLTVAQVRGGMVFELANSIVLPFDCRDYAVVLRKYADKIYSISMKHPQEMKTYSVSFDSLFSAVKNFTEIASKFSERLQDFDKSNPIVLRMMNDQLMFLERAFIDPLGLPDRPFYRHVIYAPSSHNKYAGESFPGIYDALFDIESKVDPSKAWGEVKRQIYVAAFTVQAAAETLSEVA

With `O=C(O)CC[C@H](NC(=O)N[C@@H](CCCCNC(=O)CCCCCCC(=O)NCCCC[C@@H](NC(=O)[C@@H](Cc1ccccc1)NC(=O)[C@@H](Cc1ccc(O)c(I)c1)NC(=O)CC[C@H](C(=O)O)N1CCN(CC(=O)O)CCN(CC(=O)O)CC1)C(=O)O)C(=O)O)C(=O)O` [NODAGA-PSMA I&T, NODAGA-(I-y) fk (Sub-KuE)] the NOAEL at 2 weeks [1] was 5 mg/kg, the clinical tolerance (CD-1 mice; 5 mg/kg i.v., CD-1 mice) was “clinically well-tolerated” and the “effects on body weight gain or food consumption” value (CD-1 mice; 5 mg/kg i.v., CD-1 mice) was “No effects on body weight gain or food consumption were noted”. For the same compound, the “effects on organ weights” value (CD-1 mice; 5 mg/kg i.v., CD-1 mice) was “No adverse effects on organ weights were noted”, the “macroscopic or microscopic findings” value (CD-1 mice; 5 mg/kg i.v., CD-1 mice) was “No macroscopic or microscopic findings that could be attributed to treatment” and the “treatment-related mortality or acute adverse effect” value (CD-1 mice; 5 mg/kg i.v., CD-1 mice) was “no treatment-related mortality or acute adverse effect was registered”. For the same compound, the glucose level (CD-1 mice; [5]) was “decrease in glucose level”, the platelet count (CD-1 mice; [5]) was “decrease in platelet count” and the potassium level (CD-1 mice; [5]) was “increase in potassium level”. For the same compound, the safety ratio (CD-1 mice; versus intended average patient dose 0.4 μg/kg, with dose conversion factor) was 1000 times and the degradation on storage [2] was “no signs of degradation”.

For `O=C(O)CC[C@H](NC(=O)N[C@@H](CCCCNC(=O)c1ccc([18F])nc1)C(=O)O)C(=O)O` [Pylarify], the Effective Dose [3] is given as 0.017 mSv/MBq.

In the case of `O=C([O-])CN1CCN(CC(=O)[O-])CCN([C@H](CCC(=O)N[C@H](Cc2ccc(O)c(I)c2)C(=O)N[C@H](Cc2ccccc2)C(=O)N[C@H](CCCCNC(=O)CCCCCCC(=O)NCCCC[C@H](NC(=O)N[C@@H](CCC(=O)O)C(=O)O)C(=O)O)C(=O)O)C(=O)O)CC1.[Cu+2]` [[^61/64Cu]Cu-NODAGA-PSMA I&T], the “Biodistribution healthy mice, Adrenal” value ([4]; 1 hour post-injection) is reported as 14.38 ± 4.39 % AI/g, the “Biodistribution healthy mice, Blood” value ([4]; 1 hour post-injection) is reported as 0.33 ± 0.09 % AI/g and the “Biodistribution healthy mice, Femur” value ([4]; 1 hour post-injection) is reported as 2.48 ± 0.97 % AI/g. For the same compound, the “Biodistribution healthy mice, Heart” value ([4]; 1 hour post-injection) was 0.49 ± 0.12 % AI/g, the “Biodistribution healthy mice, Intestine” value ([4]; 1 hour post-injection) was 2.11 ± 0.85 % AI/g and the “Biodistribution healthy mice, Kidneys” value ([4]; 1 hour post-injection) was 124 ± 21 % AI/g. For the same compound, the “Biodistribution healthy mice, Liver” value ([4]; 1 hour post-injection) was 1.12 ± 0.25 % AI/g, the “Biodistribution healthy mice, Lung” value ([4]; 1 hour post-injection) was 1.49 ± 0.45 % AI/g and the “Biodistribution healthy mice, Muscles” value ([4]; 1 hour post-injection) was 0.99 ± 0.30 % AI/g. The “Biodistribution healthy mice, Pancreas” value ([4]; 1 hour post-injection) was 1.37 ± 0.90 % AI/g, the “Biodistribution healthy mice, Salivary glands” value ([4]; 1 hour post-injection) was 1.89 ± 0.28 % AI/g and the “Biodistribution healthy mice, Spleen” value ([4]; 1 hour post-injection) was 9.33 ± 3.81 % AI/g. For the same compound, the “Biodistribution healthy mice, Stomach” value ([4]; 1 hour post-injection) was 1.12 ± 0.15 % AI/g, the “Biodistribution healthy mice, Adrenal” value ([4]; 4 hours post-injection) was 7.31 ± 2.76 % AI/g and the “Biodistribution healthy mice, Blood” value ([4]; 4 hours post-injection) was 0.11 ± 0.03 % AI/g. The “Biodistribution healthy mice, Femur” value ([4]; 4 hours post-injection) was 1.34 ± 0.38 % AI/g, the “Biodistribution healthy mice, Heart” value ([4]; 4 hours post-injection) was 0.25 ± 0.06 % AI/g and the “Biodistribution healthy mice, Intestine” value ([4]; 4 hours post-injection) was 1.12 ± 0.48 % AI/g. For the same compound, the “Biodistribution healthy mice, Kidneys” value ([4]; 4 hours post-injection) was 94 ± 12 % AI/g, the “Biodistribution healthy mice, Liver” value ([4]; 4 hours post-injection) was 0.88 ± 0.25 % AI/g and the “Biodistribution healthy mice, Lung” value ([4]; 4 hours post-injection) was 0.68 ± 0.22 % AI/g. The “Biodistribution healthy mice, Muscles” value ([4]; 4 hours post-injection) was 0.45 ± 0.18 % AI/g, the “Biodistribution healthy mice, Pancreas” value ([4]; 4 hours post-injection) was 0.55 ± 0.16 % AI/g and the “Biodistribution healthy mice, Salivary glands” value ([4]; 4 hours post-injection) was 0.58 ± 0.12 % AI/g. For the same compound, the “Biodistribution healthy mice, Spleen” value ([4]; 4 hours post-injection) was 2.35 ± 1.45 % AI/g, the “Biodistribution healthy mice, Stomach” value ([4]; 4 hours post-injection) was 0.72 ± 0.15 % AI/g and the “Biodistribution healthy mice, Adrenal” value [4, 6] was 2.99 ± 0.93 % AI/g. The “Biodistribution healthy mice, Blood” value [4, 6] was 0.11 ± 0.01 % AI/g, the “Biodistribution healthy mice, Femur” value [4, 6] was 0.50 ± 0.10 % AI/g and the “Biodistribution healthy mice, Heart” value [4, 6] was 0.26 ± 0.05 % AI/g. The “Biodistribution healthy mice, Intestine” value [4, 6] was 0.94 ± 0.41 % AI/g, the “Biodistribution healthy mice, Kidneys” value [4, 6] was 60 ± 9 % AI/g and the “Biodistribution healthy mice, Liver” value [4, 6] was 0.96 ± 0.18 % AI/g. The “Biodistribution healthy mice, Lung” value [4, 6] was 0.52 ± 0.11 % AI/g, the “Biodistribution healthy mice, Muscles” value [4, 6] was 0.25 ± 0.05 % AI/g and the “Biodistribution healthy mice, Pancreas” value [4, 6] was 0.28 ± 0.04 % AI/g. The “Biodistribution healthy mice, Salivary glands” value [4, 6] was 0.39 ± 0.05 % AI/g, the “Biodistribution healthy mice, Spleen” value [4, 6] was 1.40 ± 0.57 % AI/g and the “Biodistribution healthy mice, Stomach” value [4, 6] was 0.52 ± 0.03 % AI/g. The “accumulated activity in the kidneys” value ([4]; 24 hours post-injection) was < 20 % IA/g, the “Biodistribution healthy mice, Adrenal” value [4, 7] was 1.17 ± 0.22 % AI/g and the “Biodistribution healthy mice, Blood” value [4, 7] was 0.08 ± 0.01 % AI/g. The “Biodistribution healthy mice, Femur” value [4, 7] was 0.20 ± 0.05 % AI/g, the “Biodistribution healthy mice, Heart” value [4, 7] was 0.21 ± 0.02 % AI/g and the “Biodistribution healthy mice, Intestine” value [4, 7] was 0.46 ± 0.11 % AI/g. For the same compound, the “Biodistribution healthy mice, Kidneys” value [4, 7] was 16.1 ± 4.9 % AI/g, the “Biodistribution healthy mice, Liver” value [4, 7] was 0.84 ± 0.11 % AI/g and the “Biodistribution healthy mice, Lung” value [4, 7] was 0.32 ± 0.12 % AI/g. For the same compound, the “Biodistribution healthy mice, Muscles” value [4, 7] was 0.08 ± 0.02 % AI/g, the “Biodistribution healthy mice, Pancreas” value [4, 7] was 0.17 ± 0.03 % AI/g and the “Biodistribution healthy mice, Salivary glands” value [4, 7] was 0.22 ± 0.05 % AI/g. The “Biodistribution healthy mice, Spleen” value [4, 7] was 0.58 ± 0.15 % AI/g and the “Biodistribution healthy mice, Stomach” value [4, 7] was 0.31 ± 0.05 % AI/g.

For `O=C([O-])CN(CCN(CC(=O)[O-])Cc1cc(CCC(=O)NCCCCCC(=O)NCCCC[C@H](NC(=O)N[C@@H](CCC(=O)O)C(=O)O)C(=O)O)ccc1[O-])Cc1cc(CCC(=O)O)ccc1[O-].[68Ga+3].[OH3+]` [[^68Ga]Ga-PSMA-11], the Effective Dose [3] is given as 0.023 mSv/MBq.

For `O=C(O)CC[C@H](NC(=O)N[C@@H](CCCCNC(=O)CCCCCCC(=O)NCCCC[C@@H](NC(=O)[C@@H](Cc1ccccc1)NC(=O)[C@@H](Cc1ccc(O)c(I)c1)NC(=O)CC[C@H](C(=O)O)N1CCN2CCN(CC1)CC(=O)[O][Cu][O]C(=O)C2)C(=O)O)C(=O)O)C(=O)O` [^natCu-NODAGA-PSMA I&T], the IC50 (PSMA) was 9.3 ± 1.8 nM.
